{"source": "patent US8613929B2", "about": "“Methods and compositions for targeting agents into and across the blood-brain barrier and other endothelial cell microvascular barriers” (priority 2003, dated 2013)", "key": {"[1]": {"system": "brain cortex", "assay": "In vivo brain distribution: HRP activity in brain cortex homogenate samples", "set-up": "species or system Guinea pigs", "conditions": "1.5 h after intracarotid bolus injection, 500 microgram/ml HRP equivalent in 0.5 ml saline (FIG. 18)", "experimental": "Brain uptake of CRM197 or holo-transferrin (TrF) conjugated to HRP (2:1 weight/weight ratio) was determined 1.5 h after an intracarotid bolus injection of the conjugates (corresponding to a concentration of 500 microgram/ml in 0.5 ml saline of un-conjugated HRP), and compared to an equal concentration of free HRP, in young male Guinea pigs (Dunkin-Hartley HsdPoc:HD, 250-300 g). The proteins were conjugated to HRP by means of a HRP conjugation kit according to the manufacturers instructions (α Diagnostic International, San Antonio, Tex., USA). In addition, conjugated proteins were further purified on a HiPrep 16/60 column packed with Sephacryl S-200 HR matrix (Amersham Biosciences, UK). Briefly, the animals were anesthetized with isoflurane inhalation (4% induction, 1-1.5% maintenance) in an air/oxygen mixture (2:1). A cannula was placed in the carotid artery for blood sample collection and drug administration. […]\nThe cortex of perfused brains (and one non-perfused control brain) was dissected and weighted. […] Tissue/cells were lysed by an aqueous solution of 0.1% Na-deoxycholate (final concentration) before the HRP activity was detected in the clear supernatant of the spun-down homogenates using a standard colorimetric assay with the appropriate calibration curves and corrections for dilutions and protein content of the supernatants."}, "[2]": {"system": "brain", "conditions": "guinea pig, in vivo"}, "[3]": {"system": "brain cortex", "conditions": "1.5 h after intracarotid bolus injection (FIG. 19)"}, "[4]": {"target": "LPSS14 (DTR) (Bos taurus, UniProt E1BIN8)", "sequence (E1BIN8 24-208 limits assumed)": "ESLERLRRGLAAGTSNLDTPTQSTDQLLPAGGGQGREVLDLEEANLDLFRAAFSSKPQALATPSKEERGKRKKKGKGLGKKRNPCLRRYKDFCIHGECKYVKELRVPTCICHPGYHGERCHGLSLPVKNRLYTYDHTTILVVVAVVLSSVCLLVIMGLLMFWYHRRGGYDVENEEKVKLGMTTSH", "assay_type": "cell-based, bovine"}, "[5]": {"system": "BCEC+ astrocyte co-cultures", "conditions": "FIG. 2; earlier experiments (Gaillard 2000a); cited from earlier work"}}, "data": [{"molecule": "free HRP: un-conjugated horseradish peroxidase, a 40 kDa enzyme", "values": [{"measurement": "HRP activity in brain cortex homogenate samples (homogenate, parenchyma, capillaries)", "setting": "[1]", "result": "below the detection limit"}, {"measurement": "staining for CRM197 by immunohistochemistry for diphtheria toxin", "setting": "[2]", "result": "not observed"}, {"measurement": "TMB staining of cryosections of well-perfused brains", "setting": "[3]", "result": "no visible staining"}]}, {"molecule": "heparin", "values": [{"measurement": "toxicity consistent with a higher concentration of DT", "setting": "[4]; heparin 125 microgram/ml 1 h pretreatment, 100 ng/ml DT", "result": 10, "unit": "fold"}, {"measurement": "DT toxic effect took place earlier than untreated controls", "setting": "[4]; heparin 125 microgram/ml 1 h pretreatment, 100 ng/ml DT (FIG. 9)", "result": "about 1 hour"}, {"measurement": "toxic effect after apical exposure to 100 ng/ml DT on pretreated BCEC", "setting": "[4]; pretreatment: CRM197 5 microgram/ml 1 h, heparin 125 microgram/ml 1 h, LPS 1 microgram/ml 2 h, BB94 10 micromolar 1 h (FIG. 8-10)", "result": "increased"}]}, {"molecule": "C[C@@H]1C[C@@H]([C@H](O)CC2CC(=O)NC(=O)C2)C(=O)[C@@H](C)C1", "note": "[cycloheximide]", "values": [{"measurement": "recovery of BCEC+ astrocyte co-cultures from LPS", "setting": "[5]", "result": "completely inhibit the recovery phase"}]}]}
